Results from US7521454B2 (Dainippon Sumitomo Pharma Co., Ltd., priority 2001, dated 2009).
Values after ≈ are worked out from the molar mass of the structure shown.

Columns and labels:
mouse spleen cell = experiment: cells; format: cell-based; settings: Mus musculus, 24 h, read-out: Interferon-inducing activity: Minimum effective concentration
Balb/c male mouse = experiment: Interferon-inducing activity in mouse (in vivo), serum interferon titer after oral dosing
[1] = Solubility in citric acid/disodium phosphate buffers; settings: for solubility at 30 min: thermodynamic from solid
Protocol: 5.53% citric acid (monohydrate) and 1.75% disodium phosphate (anhydrous) were mixed together to prepare buffers (pH 2.5, 5.5, 7.4). A compound was added thereto, the mixture was stirred in a vortex mixer and subjected to ultrasonication for 30 minutes. Thereafter, the resultant was stirred in a vortex mixer again and then centrifuged at 15,000 rpm for 20 minutes. The levels of the compounds in the supernatants were then quantified by HPLC.

IL-4 production = experiment: Inhibitory activity against Th2 cytokine produced from sensitized spleen cells: IL-4; format: cell-based, mouse; settings: Mus musculus, 72 h, read-out: Inhibitory activity against IL-4 production
Protocol: (§1) A 7-week-old BALB/c mouse was immunized intraperitoneally with aluminum hydroxide gel (4 mg, 100 μl) having 10 μg of ovalbumin adsorbed thereon, and it was subjected to additional immunization with the same agent 14 days later. Seven days thereafter, spleen was taken out, and suspended in RPMI-1640 comprising inactivated fetal bovine serum (10%), 2-mercaptoethanol ([…]), penicillin G (100 U/ml), and streptomycin (100 μg/ml). Thus, a splenic cell suspension was prepared. Ovalbumin (0.5 mg/ml) and a test compound were added to a splenic cell suspension (5×10^6 cell/200 μl/well), and the resultant was cultured at 37° C. in the presence of 5% CO2 for 3 days. The cytokine level in the culture supernatant was quantified by ELISA. IFN-γ and IL-4 were assayed using a kit available from Amersham, and IL-5 was assayed using a kit available from Endogen.

IL-5 production = experiment: Inhibitory activity against Th2 cytokine produced from sensitized spleen cells: IL-5; format: cell-based, mouse; settings: Mus musculus, 72 h, read-out: Inhibitory activity against IL-5 production
Protocol: as §1

[2] = citric acid/disodium phosphate buffer, pH 2.5, aqueous buffer
[3] = citric acid/disodium phosphate buffer, pH 5.5, aqueous buffer
[4] = citric acid/disodium phosphate buffer, pH 7.4, aqueous buffer
[5] = dosage 0.1 mg/kg oral, serum 2 h after dosing, Balb/c mouse
[6] = dosage 0.3 mg/kg oral, serum 2 h after dosing, Balb/c mouse

CCCCOc1ccc(Cn2c(O)nc3c(N)nc(OCCCC)nc32)cn1 [Example 4, 2-Butoxy-9-(6-n-butoxy-3-pyridylmethyl)-8-hydroxyadenine]
minimal effective concentration (mouse spleen cell): 0.01 µM

CCCCOc1nc(N)c2nc(O)n(Cc3cccnc3OC)c2n1 [Example 6, 2-Butoxy-8-hydroxy-9-(2-methoxy-3-pyridylmethyl)adenine]
minimal effective concentration (mouse spleen cell): 0.001 µM | Interferon-inducing activity (Balb/c male mouse; po, 0.1 mg/kg, 2 h): 569 ± 42 U/ml | Interferon-inducing activity (Balb/c male mouse; po, 0.3 mg/kg, 2 h): 1222 ± 248 U/ml

CCCCNc1nc(N)c2nc(O)n(Cc3cccnc3C)c2n1 [Example 28, 2-Butylamino-8-hydroxy-9-(2-methyl-3-pyridylmethyl)adenine]
minimal effective concentration (mouse spleen cell): 0.01 µM | Interferon-inducing activity (Balb/c male mouse; po, 0.1 mg/kg, 2 h): 186 ± 62 U/ml | Interferon-inducing activity (Balb/c male mouse; po, 0.3 mg/kg, 2 h): 1462 ± 260 U/ml | solubility at 30 min [1, 2]: > 1000 µg/mL | solubility at 30 min [1, 3]: 8 µg/mL (≈ 24.4 µM) | solubility at 30 min [1, 4]: 4 µg/mL (≈ 12.2 µM)

CCCCOc1nc(N)c2nc(O)n(Cc3ccc(N4CCCCC4)nc3)c2n1 [Example 13, 2-Butoxy-9-(6-piperidino-3-pyridylmethyl)-8-hydroxyadenine]
minimal effective concentration (mouse spleen cell): 0.003 µM | Interferon-inducing activity (Balb/c male mouse; po, 0.3 mg/kg, 2 h): 304 ± 138 U/ml

CCCCOc1nc(N)c2nc(O)n(Cc3cnc(Cl)c(Cl)c3)c2n1 [Example 11, 2-Butoxy-9-(5,6-dichloro-3-pyridylmethyl)-8-hydroxyadenine]
minimal effective concentration (mouse spleen cell): 0.003 µM | Interferon-inducing activity (Balb/c male mouse; [5]): 279 ± 177 U/ml | Interferon-inducing activity (Balb/c male mouse; [6]): 568 ± 160 U/ml

CCCCOc1nc(N)c2nc(O)n(Cc3ccc(Cl)nc3Cl)c2n1 [Example 12, 2-Butoxy-9-(2,6-dichloro-3-pyridylmethyl)-8-hydroxyadenine]
minimal effective concentration (mouse spleen cell): 0.01 µM | Interferon-inducing activity (Balb/c male mouse; [6]): 31 ± 5 U/ml

CCCCOc1nc(N)c2nc(O)n(Cc3ccncc3)c2n1 [Example 9, 2-Butoxy-8-hydroxy-9-(4-pyridylmethyl)adenine]
minimal effective concentration (mouse spleen cell): 0.003 µM | Interferon-inducing activity (Balb/c male mouse; po, 0.3 mg/kg, 2 h): 539 ± 107 U/ml | solubility at 30 min [1, 2]: 350 µg/mL (≈ 1110 µM) | solubility at 30 min [1, 3]: 4 µg/mL (≈ 12.7 µM) | solubility at 30 min [1, 4]: 3 µg/mL (≈ 9.54 µM)

CCCCNc1nc(N)c2nc(O)n(Cc3ccc(N(C)C)nc3)c2n1 [Example 24, 2-Butylamino-9-(6-dimethylamino-3-pyridylmethyl)-8-hydroxyadenine]
minimal effective concentration (mouse spleen cell): 0.003 µM | Interferon-inducing activity (Balb/c male mouse; po, 0.3 mg/kg, 2 h): 403 ± 146 U/ml | solubility at 30 min [1, 2]: 27000 µg/mL (≈ 75800 µM) | solubility at 30 min [1, 3]: 22 µg/mL (≈ 61.7 µM) | solubility at 30 min [1, 4]: 1 µg/mL (≈ 2.81 µM)

CCCCOc1nc(N)c2nc(O)n(Cc3ccc(N4CCOCC4)nc3)c2n1 [Example 15, 2-Butoxy-9-(6-morpholino-3-pyridylmethyl)-8-hydroxyadenine]
minimal effective concentration (mouse spleen cell): 0.001 µM | Interferon-inducing activity (Balb/c male mouse; po, 0.1 mg/kg, 2 h): 52 ± 32 U/ml | Interferon-inducing activity (Balb/c male mouse; po, 0.3 mg/kg, 2 h): 603 ± 147 U/ml | solubility at 30 min [1, 2]: 140 µg/mL (≈ 350 µM) | solubility at 30 min [1, 3]: 1 µg/mL (≈ 2.5 µM) | solubility at 30 min [1, 4]: < 1 µg/mL

COc1nc(N)c2nc(O)n(Cc3cccnc3)c2n1 [Example 32, 8-Hydroxy-2-methoxy-9-(3-pyridylmethyl)adenine]
solubility at 30 min [1, 2]: > 1000 µg/mL | solubility at 30 min [1, 3]: 82 µg/mL (≈ 301 µM) | solubility at 30 min [1, 4]: 25 µg/mL (≈ 91.8 µM)

CCCCNc1nc(N)c2nc(O)n(Cc3ccc(C)nc3Cl)c2n1 [Example 29, 2-Butylamino-9-(2-chloro-6-methyl-3-pyridylmethyl)-8-hydroxyadenine]
minimal effective concentration (mouse spleen cell): 0.01 µM | Interferon-inducing activity (Balb/c male mouse; [6]): 619 ± 268 U/ml

CCCCOc1nc(N)c2nc(O)n(Cc3cccnc3C)c2n1 [Example 26, 2-Butoxy-8-hydroxy-9-(2-methyl-3-pyridylmethyl)adenine]
minimal effective concentration (mouse spleen cell): 0.001 µM | Interferon-inducing activity (Balb/c male mouse; po, 0.03 mg/kg, 2 h): 121 ± 11 U/ml | Interferon-inducing activity (Balb/c male mouse; po, 0.1 mg/kg, 2 h): 433 ± 366 U/ml | Interferon-inducing activity (Balb/c male mouse; po, 0.3 mg/kg, 2 h): 780 ± 190 U/ml | solubility at 30 min [1, 2]: > 1000 µg/mL | solubility at 30 min [1, 3]: 6 µg/mL (≈ 18.3 µM) | solubility at 30 min [1, 4]: 3 µg/mL (≈ 9.14 µM)

CCCCNc1nc(N)c2nc(O)n(Cc3cccnc3Cl)c2n1 [Example 18, 2-Butylamino-9-(2-chloro-3-pyridylmethyl)-8-hydroxyadenine]
minimal effective concentration (mouse spleen cell): 0.01 µM | Interferon-inducing activity (Balb/c male mouse; po, 0.3 mg/kg, 2 h): 94 ± 49 U/ml

CCCCOc1nc(N)c2nc(O)n(Cc3cccnc3)c2n1 [Example 8, 2-Butoxy-8-hydroxy-9-(3-pyridylmethyl)adenine]
minimal effective concentration (mouse spleen cell): 0.001 µM | Interferon-inducing activity (Balb/c male mouse; po, 0.01 mg/kg, 2 h): 13 ± 5 U/ml | Interferon-inducing activity (Balb/c male mouse; po, 0.03 mg/kg, 2 h): 167 ± 97 U/ml | Interferon-inducing activity (Balb/c male mouse; po, 0.1 mg/kg, 2 h): 725 ± 141 U/ml | Interferon-inducing activity (Balb/c male mouse; po, 0.3 mg/kg, 2 h): 936 ± 438 U/ml | solubility at 30 min [1, 2]: 784 µg/mL (≈ 2490 µM) | solubility at 30 min [1, 3]: 20 µg/mL (≈ 63.6 µM) | solubility at 30 min [1, 4]: 18 µg/mL (≈ 57.3 µM)

CCCCOc1nc(N)c2nc(O)n(Cc3cnc(Cl)c(OC)c3)c2n1 [Example 7, 2-Butoxy-9-(6-chloro-5-methoxy-3-pyridylmethyl)-8-hydroxyadenine]
minimal effective concentration (mouse spleen cell): 0.001 µM | Interferon-inducing activity (Balb/c male mouse; [5]): 347 ± 149 U/ml | Interferon-inducing activity (Balb/c male mouse; [6]): 845 ± 22 U/ml

CCCCNc1nc(N)c2nc(O)n(Cc3ccc(Cl)nc3Cl)c2n1 [Example 23, 2-Butylamino-9-(2,6-dichloro-3-pyridylmethyl)-8-hydroxyadenine]
minimal effective concentration (mouse spleen cell): 0.01 µM | Interferon-inducing activity (Balb/c male mouse; [5]): 42 ± 7 U/ml | Interferon-inducing activity (Balb/c male mouse; [6]): 414 ± 118 U/ml

CCCCOc1nc(N)c2nc(O)n(Cc3cnccn3)c2n1 [Example 10]
Interferon-inducing activity (Balb/c male mouse; dosage 0.03 mg/kg oral, serum 2 h after dosing, Balb/c mouse): 89 ± 22 U/ml | Interferon-inducing activity (Balb/c male mouse; [5]): 409 ± 267 U/ml | Interferon-inducing activity (Balb/c male mouse; [6]): 733 ± 256 U/ml | activity at 0.001 µM (IL-4 production): 54% | activity at 0.01 µM (IL-4 production): 3% | activity at 0.1 µM (IL-4 production): < 1% | activity at 0.001 µM (IL-5 production): 91% | activity at 0.01 µM (IL-5 production): 32% | activity at 0.1 µM (IL-5 production): 15% | solubility at 30 min ([1]; pH 2.5, aqueous buffer): 34 µg/mL (≈ 108 µM) | solubility at 30 min ([1]; pH 5.5, aqueous buffer): 15 µg/mL (≈ 47.6 µM) | solubility at 30 min ([1]; pH 7.4, aqueous buffer): 10 µg/mL (≈ 31.7 µM)

CCCCOc1nc(N)c2nc(O)n(Cc3cccnc3Cl)c2n1 [Example 5, 2-Butoxy-9-(2-chloro-3-pyridylmethyl)-8-hydroxyadenine]
minimal effective concentration (mouse spleen cell): 0.003 µM | Interferon-inducing activity (Balb/c male mouse; po, 0.1 mg/kg, 2 h): 133 ± 33 U/ml | Interferon-inducing activity (Balb/c male mouse; po, 0.3 mg/kg, 2 h): 473 ± 9 U/ml

CCCCOc1nc(N)c2nc(O)n(Cc3ccc(N(C)C)nc3)c2n1 [Example 16, 2-Butoxy-9-(6-dimethylamino-3-pyridylmethyl)-8-hydroxyadenine]
minimal effective concentration (mouse spleen cell): 0.001 µM | Interferon-inducing activity (Balb/c male mouse; po, 0.1 mg/kg, 2 h): 251 ± 46 U/ml | Interferon-inducing activity (Balb/c male mouse; po, 0.3 mg/kg, 2 h): 716 ± 155 U/ml | solubility at 30 min [1, 2]: 293 µg/mL (≈ 820 µM)

CCCCOc1nc(N)c2nc(O)n(Cc3ccc(OCC)nc3)c2n1 [Example 3, 2-Butoxy-9-(6-ethoxy-3-pyridylmethyl)-8-hydroxyadenine]
minimal effective concentration (mouse spleen cell): 0.001 µM | Interferon-inducing activity (Balb/c male mouse; po, 0.1 mg/kg, 2 h): 353 ± 73 U/ml | Interferon-inducing activity (Balb/c male mouse; po, 0.3 mg/kg, 2 h): 1966 ± 532 U/ml

CCCCOc1nc(N)c2nc(O)n(Cc3ccc(N4CCCC4)nc3)c2n1 [Example 14, 2-Butoxy-9-(6-(1-pyrrolidinyl)-3-pyridylmethyl)-8-hydroxyadenine]
minimal effective concentration (mouse spleen cell): 0.001 µM | Interferon-inducing activity (Balb/c male mouse; po, 0.3 mg/kg, 2 h): 570 ± 63 U/ml

COCCOc1nc(N)c2nc(O)n(Cc3cccnc3)c2n1 [Example 31, 8-Hydroxy-2-(2-methoxy)ethoxy-9-(3-pyridylmethyl)adenine]
Solubility (level of compound in supernatant) ([1]; pH 2.5 buffer): >1,000 μg/ml | Solubility (level of compound in supernatant) ([1]; pH 5.5 buffer): 353 µg/mL | Solubility (level of compound in supernatant) ([1]; pH 7.4 buffer): 322 µg/mL
